Consider two compounds from article PMC5369539 (Chemical Science, 2016).

Structures are written as SMILES. Bridge positions count the residues as written; N and C are the ends. Square brackets hold non-standard residues; d marks the D form. Peptide text beside a SMILES is read from it. * marks the point of attachment. X1 = CC[C@H](C)CCCCC(=O)*; Dab = NCC[C@H](N)C(=O)O

One assay deals with E. faecalis (OG1X). The assay is described as follows: Minimum inhibitory concentration. Format: cell-based. The note with it: text summary of Table S1.
Another assay has as its system S. aureus (ATCC6538). Description: Minimum inhibitory concentration. Format: cell-based. Particulars: text summary of Table S1.

Turning to `CC[C@H](C)CCCCC(=O)N[C@@H](CCN)C(=O)N[C@H](C(=O)N[C@@H](CCN)C(=O)N[C@H]1CCNC(=O)[C@H]([C@@H](C)O)NC(=O)[C@H](CCN)NC(=O)[C@H](CCN)NC(=O)[C@H](CC(C)C)NC(=O)[C@@H](Cc2ccccc2)NC(=O)[C@H](CCN)NC1=O)[C@@H](C)O` [polymyxin B] (X1-[Dab]T[Dab][Dab][Dab][dF]L[Dab][Dab]T; lactam 4-C (inferred); N-terminus assumed), in the assay with E. faecalis (OG1X), the “activity against E. faecalis (in words)” value is given as “tolerant”. As to `CCCCCCCCCC(=O)N[C@@H](Cc1c[nH]c2ccccc12)C(=O)N[C@H](CC(N)=O)C(=O)N[C@@H](CC(=O)O)C(=O)N[C@@H]1C(=O)NCC(=O)N[C@@H](CCCN)C(=O)N[C@@H](CC(=O)O)C(=O)N[C@H](C)C(=O)N[C@@H](CC(=O)O)C(=O)NCC(=O)N[C@H](CO)C(=O)N[C@@H]([C@H](C)CC(=O)O)C(=O)N[C@@H](CC(=O)c2ccccc2N)C(=O)O[C@@H]1C` [daptomycin], the “activity against S. aureus (in words)” value in the assay on S. aureus (ATCC6538) is “appreciable activity”. Moreover, in the assay with E. faecalis (OG1X), the “activity against E. faecalis (in words)” value is recorded as “tolerant”.
